DBAASP
≈ marks a conversion by molar mass, not a printed value. Values belong to the compound of their own block, whether it stands above or below them.

Key:
Assay in all cases: ≥ marks a high value that may be exact or a test limit, other limits are often not marked, values filed in µg/mL are converted to µM
[1] = tested on: Streptococcus mutans
[2] = tested on: Escherichia coli ATCC 25922
[3] = tested on: Klebsiella pneumoniae ATCC 13883
[4] = tested on: Pseudomonas aeruginosa PAO1
[5] = tested on: Staphylococcus aureus USA 300
[6] = tested on: Bacillus subtilis
[7] = tested on: Candida albicans F7-39/IDE99
[8] = tested on: Escherichia coli B
[9] = tested on: Pseudomonas aeruginosa
[10] = tested on: Staphylococcus aureus
[11] = tested on: Bacillus subtilis ATCC 23857
[12] = tested on: Escherichia coli ML-35
[13] = tested on: Staphylococcus aureus ATCC 29213
[14] = tested on: Staphylococcus epidermidis ATCC 12228
[15] = tested on: Enterococcus faecalis ATCC 29212
[16] = tested on: Salmonella enterica subsp. enterica serovar Pullorum C79-13
[17] = tested on: Salmonella enterica subsp. enterica serovar Typhimurium C77-31
[18] = tested on: Candida albicans ATCC 2002
[19] = tested on: Pseudomonas aeruginosa CMCCB 10104
[20] = tested on: Staphylococcus aureus ATCC 25923
[21] = tested on: Candida albicans
[22] = tested on: Escherichia coli

MIC [1]: ≥ 191 µM
Compound: CC(C)C[C@H](NC(=O)[C@H](C)NC(=O)[C@H](Cc1cnc[nH]1)NC(=O)[C@H](CC(C)C)NC(=O)[C@H](CC(C)C)NC(=O)[C@H](Cc1cnc[nH]1)NC(=O)[C@@H](NC(=O)[C@H](C)N)[C@@H](C)O)C(=O)N[C@@H](CCC(N)=O)C(=O)N[C@@H](CCCN=C(N)N)C(=O)N[C@@H](Cc1ccccc1)C(N)=O [ATHLLHALQRF]

MIC [2]: > 25 µM
MIC [3]: 25 µM (≈ 33.5 µg/mL)
MIC [4]: > 25 µM
MIC [5]: 3.1 µM (≈ 4.15 µg/mL)
Compound: CC(C)C[C@H](NC(=O)[C@H](CC(C)C)NC(=O)CNC(=O)[C@H](CC(C)C)NC(=O)[C@H](CC(C)C)NC(=O)[C@H](CO)NC(=O)[C@H](CC(C)C)NC(=O)[C@H](CC(C)C)NC(=O)[C@H](CO)NC(=O)[C@H](CC(C)C)NC(=O)[C@H](CC(C)C)NC(=O)[C@H](CCCCN)NC(=O)CN)C(N)=O [GKLLSLLSLLGLL]

MIC [2]: > 25 µM
MIC [3]: 25 µM (≈ 32.4 µg/mL)
MIC [4]: > 25 µM
MIC [5]: 0.78 µM (≈ 1.01 µg/mL)
Compound: CC(C)C[C@H](NC(=O)[C@H](CC(C)C)NC(=O)[C@H](CCCCN)NC(=O)CNC(=O)[C@H](CC(C)C)NC(=O)[C@H](CC(C)C)NC(=O)[C@H](CO)NC(=O)[C@H](CC(C)C)NC(=O)[C@H](CC(C)C)NC(=O)[C@H](CO)NC(=O)[C@H](C)NC(=O)[C@H](CC(C)C)NC(=O)CN)C(N)=O [GLASLLSLLGKLL]

MIC [2]: 3.1 µM (≈ 4.02 µg/mL)
MIC [3]: 3.1 µM (≈ 4.02 µg/mL)
MIC [4]: 12.5 µM (≈ 16.2 µg/mL)
MIC [5]: 0.78 µM (≈ 1.01 µg/mL)
Compound: CC(C)C[C@H](NC(=O)[C@H](CC(C)C)NC(=O)[C@H](CCCCN)NC(=O)CNC(=O)[C@H](C)NC(=O)[C@H](CC(C)C)NC(=O)[C@H](CO)NC(=O)[C@H](CC(C)C)NC(=O)[C@H](CC(C)C)NC(=O)[C@H](CO)NC(=O)[C@H](CC(C)C)NC(=O)[C@H](CC(C)C)NC(=O)CN)C(N)=O [GLLSLLSLAGKLL]

MIC [6]: 12 µM (≈ 33.2 µg/mL)
MIC [7]: ≥ 100 µM
MIC [8]: ≥ 100 µM
MIC [9]: > 100 µM
MIC [10]: > 100 µM
Compound: CC[C@H](C)[C@H](NC(=O)[C@H](C)NC(=O)[C@H](C)NC(=O)[C@H](CC(C)C)NC(=O)[C@@H](NC(=O)[C@H](CCCCN)NC(=O)[C@H](CCCNC(=N)N)NC(=O)[C@@H]1CCCN1C(=O)[C@H](CC(C)C)NC(=O)CN)[C@@H](C)CC)C(=O)N[C@@H](C)C(=O)N[C@@H](CCCCN)C(=O)N[C@@H](CCCCN)C(=O)N[C@@H](CCCCN)C(=O)NCC(=O)N[C@@H](CCCCN)C(=O)N[C@@H](C)C(=O)N[C@@H](CCCCN)C(=O)NCC(=O)N1CCC[C@H]1C(=O)N[C@@H](CC(C)C)C(=O)N[C@@H](CCCCN)C(=O)N[C@@H](CC(C)C)C(=O)N[C@H](C(=O)N[C@@H](C)C(=O)N[C@@H](CCCCN)C(=O)N[C@@H](C)C(=O)O)C(C)C [GLPRKILAAIAKKKGKAKGPLKLVAKA]

MIC [6]: 4 µM (≈ 11.6 µg/mL)
MIC [7]: ≥ 100 µM
MIC [8]: ≥ 100 µM
MIC [9]: > 100 µM
MIC [10]: > 100 µM
Compound: CC[C@H](C)[C@@H]1NC(=O)[C@H](C)NC(=O)[C@@H](NC(=O)[C@H](CC(C)C)NC(=O)[C@@H](NC(=O)[C@H](CCCCN)NC(=O)[C@H](CCCN=C(N)N)NC(=O)[C@@H]2CCCN2C(=O)[C@H](CC(C)C)NC(=O)CN)[C@@H](C)CC)CSSC[C@@H](C(=O)N[C@@H](CCCCN)C(=O)NCC(=O)N2CCC[C@H]2C(=O)N[C@@H](CC(C)C)C(=O)N[C@@H](CCCCN)C(=O)N[C@@H](CC(C)C)C(=O)N[C@H](C(=O)N[C@H]2CSSC[C@@H](C(=O)O)NC(=O)[C@H](CCCCN)NC2=O)C(C)C)NC(=O)[C@H](CCCCN)NC(=O)CNC(=O)[C@H](CCCCN)NC(=O)[C@H](CCCCN)NC(=O)[C@H](CCCCN)NC(=O)[C@H](C)NC1=O [GLPRKILCAIAKKKGKCKGPLKLVCKC]

MIC [11]: ≥ 256 µM
MIC [2]: > 256 µM
MIC [12]: ≥ 256 µM
MIC [13]: > 256 µM
MIC [14]: > 256 µM
Compound: CC[C@H](C)[C@H](N)C(=O)N[C@@H](CC(C)C)C(=O)NCC(=O)N[C@H](C(=O)N[C@H](C(=O)N[C@@H](CC(C)C)C(=O)NCC(=O)N1CCC[C@H]1C(=O)N[C@@H](CC(C)C)C(=O)N[C@@H](CCCCN)C(=O)NCC(=O)N[C@@H](CC(C)C)C(N)=O)[C@@H](C)CC)[C@@H](C)O [ILGTILGPLKGL]

MIC [11]: ≥ 256 µM
MIC [2]: > 256 µM
MIC [12]: ≥ 256 µM
MIC [13]: > 256 µM
MIC [14]: > 256 µM
Compound: CC[C@H](C)[C@H](N)C(=O)N[C@@H](CC(C)C)C(=O)NCC(=O)N[C@H](C(=O)N[C@H](C(=O)N[C@@H](CC(C)C)C(=O)N1CCC[C@H]1C(=O)N[C@@H](CC(C)C)C(=O)N[C@@H](CC(C)C)C(=O)N[C@@H](CCCCN)C(=O)NCC(=O)N[C@@H](CC(C)C)C(N)=O)[C@@H](C)CC)[C@@H](C)O [ILGTILPLLKGL]

MIC [1]: ≥ 90.1 µM
Compound: CC[C@H](C)[C@H](NC(=O)[C@H](CC(N)=O)NC(=O)[C@H](CCCCN)NC(=O)[C@H](CC(C)C)NC(=O)[C@H](CCC(N)=O)NC(=O)[C@H](CCC(N)=O)NC(=O)[C@@H](NC(=O)[C@H](CC(C)C)NC(=O)[C@@H](N)CCCCN)C(C)C)C(=O)N[C@@H](Cc1ccccc1)C(=O)N[C@@H](CCCN=C(N)N)C(=O)O [KLVQQLKNIFR]

MIC [1]: 4.63 µM (≈ 8 µg/mL)
Compound: CC(C)C[C@H](NC(=O)[C@H](CC(C)C)NC(=O)[C@H](CCCCN)NC(=O)[C@H](CC(C)C)NC(=O)[C@H](CC(C)C)NC(=O)[C@H](CCCCN)NC(=O)[C@H](CCCCN)NC(=O)[C@H](CC(C)C)NC(=O)[C@H](CC(C)C)NC(=O)[C@H](CCCCN)NC(=O)[C@@H](N)CC(C)C)C(=O)N[C@@H](CCCCN)C(=O)N[C@@H](CCCCN)C(=O)N[C@@H](Cc1ccccc1)C(N)=O [LKLLKKLLKLLKKF]

MIC [15]: > 128 µM
MIC [2]: > 128 µM
MIC [16]: ≥ 128 µM
MIC [17]: ≥ 128 µM
MIC [13]: > 128 µM
MIC [14]: > 128 µM
Compound: CC(C)C[C@H](NC(=O)[C@@H](NC(=O)[C@@H](NC(=O)[C@@H](N)CC(C)C)C(C)C)[C@@H](C)O)C(=O)N[C@H](C(=O)N[C@@H](Cc1ccccc1)C(=O)N[C@H](C(=O)O)C(C)C)C(C)C [LVTLVFV]

MIC [18]: 4.47 µM (≈ 11.4 µg/mL)
MIC [2]: 2.23 µM (≈ 5.7 µg/mL)
MIC [19]: 2.23 µM (≈ 5.7 µg/mL)
MIC [20]: 4.47 µM (≈ 11.4 µg/mL)
Compound: CSCC[C@H](NC(=O)[C@H](CCC(=O)O)NC(=O)[C@H](CS)NC(=O)[C@H](C)NC(=O)[C@@H](NC(=O)CNC(=O)[C@H](C)NC(=O)[C@@H](NC(=O)[C@H](Cc1ccccc1)NC(=O)[C@@H]1CCCN1C(=O)[C@H](CC(C)C)NC(=O)[C@@H](N)CCC(N)=O)C(C)C)C(C)C)C(=O)N[C@@H](CS)C(=O)N[C@@H](CCC(N)=O)C(=O)N[C@@H](CS)C(=O)N[C@H](C(=O)N[C@@H](Cc1ccc(O)cc1)C(=O)N[C@H]1CSSC[C@@H](C(=O)O)NC(=O)[C@H](CCCCN)NC(=O)[C@H](CCCCN)NC(=O)[C@H](CO)NC(=O)[C@H](C)NC(=O)[C@H](C)NC1=O)C(C)C [QLPFVAGVACEMCQCVYCAASKKC]

MIC [6]: 0.677 µM (≈ 1.75 µg/mL)
MIC [18]: 4.02 µM (≈ 10.4 µg/mL)
MIC [21]: 0.677 µM (≈ 1.75 µg/mL)
MIC [2]: 4.02 µM (≈ 10.4 µg/mL)
MIC [22]: 1.35 µM (≈ 3.5 µg/mL)
MIC [19]: 2.01 µM (≈ 5.2 µg/mL)
MIC [20]: 8.05 µM (≈ 20.8 µg/mL)
MIC [10]: 1.35 µM (≈ 3.5 µg/mL)
Compound: CC[C@H](C)[C@H](NC(=O)[C@@H](N)C(C)C)C(=O)N1CCC[C@H]1C(=O)N[C@@H](Cc1ccccc1)C(=O)N[C@H](C(=O)N[C@@H](C)C(=O)N[C@@H](CO)C(=O)N[C@H](C(=O)N[C@@H](C)C(=O)N[C@@H](C)C(=O)N[C@@H](CCC(=O)O)C(=O)N[C@@H](CCSC)C(=O)N[C@@H](CCSC)C(=O)N[C@@H](CCC(N)=O)C(=O)N[C@@H](Cc1cnc[nH]1)C(=O)N[C@H](C(=O)N[C@@H](Cc1ccc(O)cc1)C(=O)N[C@H]1CSSC[C@@H](C(=O)O)NC(=O)[C@H](CCCCN)NC(=O)[C@H](CCCCN)NC(=O)[C@H](CO)NC(=O)[C@H](C)NC(=O)[C@H](C)NC1=O)C(C)C)C(C)C)C(C)C [VIPFVASVAAEMMQHVYCAASKKC]
